In US10457655B2, “Compounds and compositions for inhibition of FASN” (FORMA Therapeutics, Inc., priority 2013, dated 2019):
Read-outs that look alike come from different tables or passages of the source.

Tests used:
[1] = biological target: FASN enzyme (Homo sapiens, UniProt P49327); assay: Enzymatic Assay for FASN Inhibitors; type: biochemical
Outline: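 40 nM FASN preincubated with compound 60 min at 25° C in HEPES pH 7.3 buffer with 0.04% Triton X-100. Then 20 μM acetyl-CoA, 60 μM malonyl-CoA and 100 μM NADPH added for 90 min, quenched with CPM thiol probe; fluorescence 360/530 nm, IC50 by four-parameter fit.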

[2] = system: PC3 cells; assay: Cell Proliferation Assays for FASN Inhibitors (PC3 cells, MTT); type: cell-based; details: Homo sapiens, PC-3, 96 h, read-out: IC50 (uM) < 0.5, 10% lipid reduced serum, 4 days, Table 3-1
Procedure: The effects of the FASN inhibitors on cultured cancer cell proliferation were studies with cell proliferation assays. PC3 cells were maintained at standard culture media (F12K media supplemented with 10% fetal bovine serum, 1×MEM nonessential amino acid and 1× penicillin/streptomycin). 2000-3000 cells/100 μL/well was seeded in a 96-well clear culture plate. The cells were incubated overnight in 5% CO2 at 37° C. for attachment. Cell media were removed and replaced with F12K media containing 10% lipid reduced serum and compound. The final DMSO concentration is 0.1%. The cells were maintained in 5% CO2 at 37° C. for 4 days. The viability of cells was determined by MTT assays. The IC50 of a given compound was calculated by fitting the dose response curve with a four parameter logistic equation.

[3] = FASN enzymatic assay, Table 2-2
[4] = FASN enzymatic assay, Table 2-3

Chain of FASN enzyme (P49327 whole entry): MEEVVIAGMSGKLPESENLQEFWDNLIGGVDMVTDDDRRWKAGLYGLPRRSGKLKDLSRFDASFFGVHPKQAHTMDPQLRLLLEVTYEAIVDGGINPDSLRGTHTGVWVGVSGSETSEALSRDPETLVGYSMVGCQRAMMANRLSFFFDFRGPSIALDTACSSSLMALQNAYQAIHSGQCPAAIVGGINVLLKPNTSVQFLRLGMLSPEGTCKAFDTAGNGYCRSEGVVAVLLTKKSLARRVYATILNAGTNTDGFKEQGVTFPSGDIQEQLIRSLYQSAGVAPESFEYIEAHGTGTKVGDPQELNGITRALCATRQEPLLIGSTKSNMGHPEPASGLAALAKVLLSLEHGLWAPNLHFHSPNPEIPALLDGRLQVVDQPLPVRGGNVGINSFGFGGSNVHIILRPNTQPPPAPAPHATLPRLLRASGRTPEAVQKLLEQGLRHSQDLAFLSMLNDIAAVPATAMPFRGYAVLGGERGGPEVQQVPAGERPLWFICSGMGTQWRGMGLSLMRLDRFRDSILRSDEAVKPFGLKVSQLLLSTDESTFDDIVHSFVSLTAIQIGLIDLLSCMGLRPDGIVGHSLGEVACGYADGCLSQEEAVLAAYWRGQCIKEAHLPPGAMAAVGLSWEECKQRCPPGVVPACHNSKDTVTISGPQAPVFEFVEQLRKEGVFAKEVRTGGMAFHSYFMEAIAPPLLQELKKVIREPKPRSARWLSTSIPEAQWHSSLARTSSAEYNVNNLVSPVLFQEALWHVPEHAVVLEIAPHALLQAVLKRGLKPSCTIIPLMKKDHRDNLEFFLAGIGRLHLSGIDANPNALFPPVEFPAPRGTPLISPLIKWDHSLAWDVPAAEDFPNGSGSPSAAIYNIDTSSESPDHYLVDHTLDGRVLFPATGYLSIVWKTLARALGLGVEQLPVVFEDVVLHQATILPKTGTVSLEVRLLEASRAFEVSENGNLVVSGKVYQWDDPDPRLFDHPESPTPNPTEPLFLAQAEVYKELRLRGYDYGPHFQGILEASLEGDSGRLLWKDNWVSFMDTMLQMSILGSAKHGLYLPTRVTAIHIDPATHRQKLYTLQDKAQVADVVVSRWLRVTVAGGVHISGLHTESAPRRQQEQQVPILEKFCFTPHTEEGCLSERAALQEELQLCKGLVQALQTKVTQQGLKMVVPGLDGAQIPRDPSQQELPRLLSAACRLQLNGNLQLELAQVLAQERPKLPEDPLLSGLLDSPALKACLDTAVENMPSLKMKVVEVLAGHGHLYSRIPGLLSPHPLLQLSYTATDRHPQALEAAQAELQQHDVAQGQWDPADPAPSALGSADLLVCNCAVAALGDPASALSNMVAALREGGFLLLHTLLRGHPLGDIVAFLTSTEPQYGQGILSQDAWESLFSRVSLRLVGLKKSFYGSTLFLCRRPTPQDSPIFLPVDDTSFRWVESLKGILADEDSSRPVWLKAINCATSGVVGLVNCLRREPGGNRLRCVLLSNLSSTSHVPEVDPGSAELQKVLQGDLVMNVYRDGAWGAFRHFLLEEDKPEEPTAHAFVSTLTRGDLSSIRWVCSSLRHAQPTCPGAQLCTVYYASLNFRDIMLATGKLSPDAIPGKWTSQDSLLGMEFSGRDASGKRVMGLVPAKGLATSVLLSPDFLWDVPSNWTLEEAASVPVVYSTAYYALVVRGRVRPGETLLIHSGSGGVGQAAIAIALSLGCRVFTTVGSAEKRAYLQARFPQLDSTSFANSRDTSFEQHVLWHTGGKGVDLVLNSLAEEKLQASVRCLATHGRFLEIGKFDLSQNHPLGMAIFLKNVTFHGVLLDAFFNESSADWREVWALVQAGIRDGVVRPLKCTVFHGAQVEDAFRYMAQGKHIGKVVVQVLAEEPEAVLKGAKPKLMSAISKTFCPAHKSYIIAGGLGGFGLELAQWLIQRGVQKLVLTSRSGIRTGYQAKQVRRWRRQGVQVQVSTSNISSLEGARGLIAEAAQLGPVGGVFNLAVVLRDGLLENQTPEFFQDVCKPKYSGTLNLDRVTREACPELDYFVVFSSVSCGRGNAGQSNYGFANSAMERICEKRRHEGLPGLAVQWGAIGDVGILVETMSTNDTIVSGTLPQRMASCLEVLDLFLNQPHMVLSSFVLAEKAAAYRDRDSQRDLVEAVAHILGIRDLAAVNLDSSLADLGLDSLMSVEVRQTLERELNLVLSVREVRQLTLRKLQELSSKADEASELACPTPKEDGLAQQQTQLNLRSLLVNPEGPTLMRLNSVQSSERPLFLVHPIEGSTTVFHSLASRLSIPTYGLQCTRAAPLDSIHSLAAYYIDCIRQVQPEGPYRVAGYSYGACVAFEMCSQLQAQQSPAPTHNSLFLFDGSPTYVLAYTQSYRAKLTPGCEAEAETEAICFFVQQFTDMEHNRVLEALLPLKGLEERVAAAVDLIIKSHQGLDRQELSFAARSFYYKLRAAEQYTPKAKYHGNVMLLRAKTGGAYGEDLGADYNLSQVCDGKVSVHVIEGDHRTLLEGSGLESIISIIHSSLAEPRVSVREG

Structure (SMILES): Cc1cc(C(=O)N2CCN(C(=O)C3(O)CC3)CC2)ccc1-c1cnc2ccccc2c1 [1-[(4-{[3-methyl-4-(quinolin-3-yl)phenyl]carbonyl}piperazin-1-yl)carbonyl]cyclopropan-1-ol]
- IC50 [1]: < 500 nM
- IC50 [2]: < 0.5 µM

Structure (SMILES): Cn1cnc2cc(-c3ccc(C(=O)N4CCN(C(=O)C5(O)CC5)CC4)cc3)ccc21 [1-[(4-{[4-(1-methyl-1H-1,3-benzodiazol-5-yl)phenyl]carbonyl}piperazin-1-yl)carbonyl]cyclopropan-1-ol]
- IC50 [1]: < 500 nM
- IC50 [2]: < 0.5 µM

Structure (SMILES): O=C(c1ccc(-c2cc(F)c3[nH]ccc3c2)cc1F)N1CCN(C(=O)C2(O)CC2)CC1 [1-[(4-{[2-fluoro-4-(7-fluoro-1H-indol-5-yl)phenyl]carbonyl}piperazin-1-yl)carbonyl]cyclopropan-1-ol]
- IC50 [1]: < 500 nM
- IC50 [2]: < 0.5 µM

Structure (SMILES): Cc1cc(C(=O)N2CCN(C(=O)C3(O)CC3)CC2)ccc1-c1ccc2ncccc2c1 [1-[(4-{[3-methyl-4-(quinolin-6-yl)phenyl]carbonyl}piperazin-1-yl)carbonyl]cyclopropan-1-ol]
- IC50 [1]: < 500 nM
- IC50 [2]: < 0.5 µM

Structure (SMILES): O=C(c1ccc(-c2ccc3ncccc3c2)cc1Cl)N1CCN(C(=O)C2(O)CC2)CC1 [1-[(4-{[2-chloro-4-(quinolin-6-yl)phenyl]carbonyl}piperazin-1-yl)carbonyl]cyclopropan-1-ol]
- IC50 [1]: < 500 nM
- IC50 [2]: < 0.5 µM

Structure (SMILES): O=C(c1ccc(-c2ccc3scnc3c2)c(Cl)c1)N1CCN(C(=O)C2(O)CC2)CC1 [1-[(4-{[4-(1,3-benzothiazol-5-yl)-3-chlorophenyl]carbonyl}piperazin-1-yl)carbonyl]cyclopropan-1-ol]
- IC50 [1]: < 500 nM
- IC50 [2]: < 0.5 µM

Structure (SMILES): O=C(c1ccc(-c2n[nH]c3ccccc23)cc1)N1CCN(C(=O)C2(O)CC2)CC1 [1-[(4-{[4-(1H-indazol-3-yl)phenyl]carbonyl}piperazin-1-yl)carbonyl]cyclopropan-1-ol]
- IC50 [1]: < 500 nM
- IC50 [2]: < 0.5 µM

Structure (SMILES): O=C(c1ccc(-c2ccc3[nH]ccc3c2)cc1)N1CCN(C(=O)C2(O)CC2)CC1 [1-[(4-{[4-(1H-indol-5-yl)phenyl]carbonyl}piperazin-1-yl)carbonyl]cyclopropan-1-ol]
- IC50 [1]: < 500 nM
- IC50 [2]: < 0.5 µM

Structure (SMILES): O=C(c1ccc(-c2cccc3[nH]ccc23)cc1)N1CCN(C(=O)C2(O)CC2)CC1 [1-[(4-{[4-(1H-indol-4-yl)phenyl]carbonyl}piperazin-1-yl)carbonyl]cyclopropan-1-ol]
- IC50 [1]: < 500 nM
- IC50 [2]: < 0.5 µM

Structure (SMILES): COc1ccc(OC(F)(F)F)cc1-c1ccc(C(=O)N2CCN(C(=O)C3(O)CC3)CC2)cc1 [1-{[4-({4-[2-methoxy-5-(trifluoromethoxy)phenyl]phenyl}carbonyl)piperazin-1-yl]carbonyl}cyclopropan-1-ol]
- IC50 [2]: < 0.5 µM

Structure (SMILES): O=C(c1ccc(-c2ccc3[nH]c(=O)ccc3c2)cc1)N1CCN(C(=O)C2(O)CC2)CC1
- IC50 [2]: < 0.5 µM

Structure (SMILES): CC1(C)CN(C(=O)C2(O)CC2)CCN1C(=O)c1ccc(-c2nc3ccc(F)cc3o2)cc1
- IC50 [1]: < 500 nM

Structure (SMILES): O=C(c1ccc(-c2cccc(S(=O)(=O)NC3CC3)c2)cc1Cl)N1CCN(C(=O)C2(O)CC2)CC1 [3-[3-chloro-4-({4-[(1-hydroxycyclopropyl)carbonyl]piperazin-1-yl}carbonyl)phenyl]-N-cyclopropylbenzene-1-sulfonamide]
- IC50 [1]: < 500 nM

Structure (SMILES): CC1(c2cccc(-c3ccc(C(=O)N4CCN(C(=O)C5(O)CC5)CC4)cc3)c2)NC(=O)NC1=O (stereo not shown)
- IC50 [1]: < 500 nM

Structure (SMILES): C[C@@H]1CN(C(=O)c2ccc(-c3nc4ccc(F)cc4o3)cc2)C[C@H](C)N1C(=O)C1(O)CC1
- IC50 [1]: < 500 nM

Structure (SMILES): Cc1cc2ccccc2n1-c1ccc(C(=O)N2CCN(C(=O)C3(O)CC3)CC2)cc1 [(4-(1-hydroxycyclopropane-1-carbonyl)piperazin-1-yl)(4-(2-methyl-1H-indol-1-yl)phenyl)methanone]
- IC50 [1]: < 500 nM

Structure (SMILES): Cc1nn(C)c2ccc(-c3ccc(C(=O)N4CCN(C(=O)C5(O)CC5)[C@@H](C)C4)cc3)cc12 [1-[(2S)-4-[4-(1,3-dimethyl-1H-indazol-5-yl)benzoyl]-2-methylpiperazine-1-carbonyl]cyclopropan-1-ol]
- IC50 [1]: < 500 nM

Structure (SMILES): N#Cc1ccc2cc(C3CCN(C(=O)N4CCN(C(=O)C5(O)CC5)CC4)CC3)ccc2c1 [6-{1-[4-(1-hydroxycyclopropanecarbonyl)piperazine-1-carbonyl]piperidin-4-yl}naphthalene-2-carbonitrile]
- IC50 [1]: < 500 nM

Structure (SMILES): O=C(c1ccc(-c2ccc(-c3cn[nH]c3)cc2)cc1)N1CCN(C(=O)C2(O)CC2)CC1
- IC50 [1]: < 500 nM

Structure (SMILES): O=C(c1ccc(-c2ccc3ncccc3c2)cc1C(F)(F)F)N1CCN(C(=O)C2(O)CC2)CC1 [1-[(4-{[4-(quinolin-6-yl)-2-(trifluoromethyl)phenyl]carbonyl}piperazin-1-yl)carbonyl]cyclopropan-1-ol]
- IC50 [1, 3]: 500 to 5000 nM

Structure (SMILES): O=C(c1ccc(-c2ccc3oc(=O)[nH]c3c2)cc1)N1CCN(C(=O)C2(O)CC2)CC1 [5-[4-({4-[(1-hydroxycyclopropyl)carbonyl]piperazin-1-yl}carbonyl)phenyl]-2,3-dihydro-1,3-benzoxazol-2-one]
- IC50 [1, 3]: 500 to 5000 nM

Structure (SMILES): Cn1nnc2cc(-c3ccc(C(=O)N4CCN(C(=O)C5(O)CC5)CC4)cc3)c(F)cc21 [1-{4-[4-(6-fluoro-1-methyl-1H-1,2,3-benzotriazol-5-yl)benzoyl]piperazine-1-carbonyl}cyclopropan-1-ol]
- IC50 [1]: < 500 nM

Structure (SMILES): O=C(c1ccc(N2CCc3cc(F)ccc32)cc1)N1CCN(C(=O)C2(O)CC2)CC1 [1-{4-[4-(5-fluoro-2,3-dihydro-1H-indol-1-yl)benzoyl]piperazine-1-carbonyl}cyclopropan-1-ol]
- IC50 [1]: < 500 nM

Structure (SMILES): O=C(c1ccc(-c2cnc3cccnc3c2)cc1)N1CCN(C(=O)C2(O)CC2)CC1 [1-[(4-{[4-(1,5-naphthyridin-3-yl)phenyl]carbonyl}piperazin-1-yl)carbonyl]cyclopropan-1-ol]
- IC50 [1, 4]: ≥ 5000 nM

Structure (SMILES): O=C(c1ccc(Oc2ccccc2)cc1)N1CCN(C(=O)C2(O)CC2)CC1 [1-({4-[(4-phenoxyphenyl)carbonyl]piperazin-1-yl}carbonyl)cyclopropan-1-ol]
- IC50 [1, 4]: ≥ 5000 nM

Structure (SMILES): Cc1nn(-c2ccc(C(=O)N3CCN(C(=O)C4(O)CC4)CC3)c(F)c2)c2ccccc12
- IC50 [1]: < 500 nM

Structure (SMILES): C[C@H]1CN(C(=O)C2(O)CC2)CCN1C(=O)c1ccc(-c2ccc3c(c2)ncn3C)cc1
- IC50 [1]: < 500 nM

Structure (SMILES): Nc1noc2cc(-c3ccc(C(=O)N4CCN(C(=O)C5(O)CC5)CC4)cc3)ccc12 [1-{4-[4-(3-amino-1,2-benzoxazol-6-yl)benzoyl]piperazine-1-carbonyl}cyclopropan-1-ol]
- IC50 [1]: < 500 nM

Structure (SMILES): COc1c(Cl)ccc(-c2ccc(C(=O)N3CCN(C(=O)C4(O)CC4)CC3)cc2)c1Cl [1-[(4-{[4-(2,4-dichloro-3-methoxyphenyl)phenyl]carbonyl}piperazin-1-yl)carbonyl]cyclopropan-1-ol]
- IC50 [1, 4]: ≥ 5000 nM

Structure (SMILES): O=C(c1ccc(-c2ccc(Cl)cc2F)nc1)N1CCN(C(=O)C2(O)CC2)CC1 [1-[(4-{[6-(4-chloro-2-fluorophenyl)pyridin-3-yl]carbonyl}piperazin-1-yl)carbonyl]cyclopropan-1-ol]
- IC50 [1, 4]: ≥ 5000 nM

Structure (SMILES): O=C(c1ccc(-c2cccc(S(=O)(=O)NC3CC3)c2)cc1)N1CCN(C(=O)C2(O)CC2)CC1 [N-cyclopropyl-3-[4-({4-[(1-hydroxycyclopropyl)carbonyl]piperazin-1-yl}carbonyl)phenyl]benzene-1-sulfonamide]
- IC50 [1]: < 500 nM

Structure (SMILES): O=C(c1ccc(-c2nc3ccccn3c2Cl)cc1)N1CCN(C(=O)C2(O)CC2)CC1
- IC50 [1]: < 500 nM

Structure (SMILES): Cc1nn(C)c2ccc(-c3ccc(C(=O)N4CCN(C(=O)C5(N)CCC5)CC4)cc3)cc12 [1-{4-[4-(1,3-dimethyl-1H-indazol-5-yl)benzoyl]piperazine-1-carbonyl}cyclobutan-1-amine]
- IC50 [1]: < 500 nM

Structure (SMILES): O=C(c1ccc(-c2cc(Cl)ccc2F)c(Cl)c1)N1CCN(C(=O)C2(O)CC2)CC1 [1-{4-[3-chloro-4-(5-chloro-2-fluorophenyl)benzoyl]piperazine-1-carbonyl}cyclopropan-1-ol]
- IC50 [1]: < 500 nM

Structure (SMILES): Cn1ncc2ccc(-c3ccc(C(=O)N4CCN(C(=O)C5(O)CC5)CC4)cc3F)cc21 [1-{4-[3-fluoro-4-(1-methyl-1H-indazol-6-yl)benzoyl]piperazine-1-carbonyl}cyclopropan-1-ol]
- IC50 [1]: < 500 nM

Structure (SMILES): NC1(C(=O)N2CCN(C(=O)c3ccc(-c4n[nH]c5c(F)cccc45)cc3F)CC2)CC1
- IC50 [1]: < 500 nM

Structure (SMILES): O=C(c1ccc(-c2ccc(Cl)cc2F)cn1)N1CCN(C(=O)C2(O)CC2)CC1 [1-[(4-{[5-(4-chloro-2-fluorophenyl)pyridin-2-yl]carbonyl}piperazin-1-yl)carbonyl]cyclopropan-1-ol]
- IC50 [1, 3]: 500 to 5000 nM

Structure (SMILES): CC(O)(C(=O)N1CCN(C(=O)c2ccc(-c3ccccc3)cc2)CC1)C(F)(F)F (stereo not shown) [3,3,3-trifluoro-2-hydroxy-2-methyl-1-{4-[(4-phenylphenyl)carbonyl]piperazin-1-yl}propan-1-one]
- IC50 [1, 4]: ≥ 5000 nM

Structure (SMILES): C[C@H]1CN(C(=O)c2ccc(-c3ccc4c(c3)ncn4C)cc2)CCN1C(=O)C1(O)CC1 [1-[(2S)-2-methyl-4-[4-(1-methyl-1H-1,3-benzodiazol-5-yl)benzoyl]piperazine-1-carbonyl]cyclopropan-1-ol]
- IC50 [1]: < 500 nM

Structure (SMILES): C[C@H]1CN(C(=O)C2(O)CC2)CCN1C(=O)c1ccc(-c2nc3ccc(F)cc3o2)cc1 [1-[(3S)-4-[4-(6-fluoro-1,3-benzoxazol-2-yl)benzoyl]-3-methylpiperazine-1-carbonyl]cyclopropan-1-ol]
- IC50 [1]: < 500 nM
